Laboratory results as given in PMC12454493, “Insight on novel sulfamoylphenyl pyrazole derivatives as anticancer carbonic anhydrase inhibitors” (Molecular Diversity, 2024).

How the values were obtained:
COLO 205 = assay: NCI-60 one-dose SRB screen (Colon Cancer); format: cell-based; settings: Homo sapiens, single dose 10 µM, 48 h, read-out: Growth inhibition percent (GI %)
Experimental: (§1) The National Cancer Institute (NCI) Developmental Therapeutic Program (www.dtp.nci.nih.gov) selected the 20 novel synthesized compounds 4a-e, 5a-e, 6a-c, 9a-e, 10 and 11 to test for their anticancer activity at a single dose of 10 µM using SRB assay. […] Supplementary Data S3; Table S1 presents the detailed screening results of the most promising compounds. The preliminary screening’s detailed results for the remaining compounds are elucidated in the (Supplementary Data S3; Table S2).
(§2) The guidelines of the Drug Evaluation Branch’s protocol at the NCI in Bethesda served as the basis for the in vitro anticancer screening assays. at one dose 10 µM against a panel of 60 cancer cell lines. The human tumor cell lines used belonged to nine panels: leukemia, melanoma, lung, colon, CNS, ovarian, renal, prostate and breast cancers using the sulforhodamine B (SRB) assay in a 48 h drug exposure protocol.

CAKI-1 = assay: NCI-60 one-dose SRB screen (Renal Cancer); format: cell-based; settings: Homo sapiens, single dose 10 µM, 48 h, read-out: Growth inhibition percent (GI %)
Experimental: as §1, §2

UO-31 = assay: NCI-60 one-dose SRB screen (Renal Cancer); format: cell-based; settings: Homo sapiens, single dose 10 µM, 48 h, read-out: Growth inhibition percent (GI %)
Experimental: as §1, §2

A498 = assay: NCI-60 one-dose SRB screen (Renal Cancer); format: cell-based; settings: Homo sapiens, single dose 10 µM, 48 h, read-out: Growth inhibition percent (GI %)
Experimental: as §1, §2

ACHN = assay: NCI-60 one-dose SRB screen (Renal Cancer); format: cell-based; settings: Homo sapiens, single dose 10 µM, 48 h, read-out: Growth inhibition percent (GI %)
Experimental: as §1, §2

RXF 393 = assay: NCI-60 one-dose SRB screen (Renal Cancer); format: cell-based; settings: Homo sapiens, single dose 10 µM, 48 h, read-out: Growth inhibition percent (GI %)
Experimental: as §1, §2

786-0 = assay: NCI-60 one-dose SRB screen (Renal Cancer); format: cell-based; settings: Homo sapiens, single dose 10 µM, 48 h, read-out: Growth inhibition percent (GI %)
Experimental: as §1, §2

TK-10 = assay: NCI-60 one-dose SRB screen (Renal Cancer); format: cell-based; settings: Homo sapiens, single dose 10 µM, 48 h, read-out: Growth inhibition percent (GI %)
Experimental: as §1, §2

MCF-7 = assay: NCI-60 one-dose SRB screen (Breast Cancer); format: cell-based; settings: Homo sapiens, MCF7, single dose 10 µM, 48 h, read-out: Growth inhibition percent (GI %)
Experimental: as §1, §2

BT-549 = assay: NCI-60 one-dose SRB screen (Breast Cancer); format: cell-based; settings: Homo sapiens, single dose 10 µM, 48 h, read-out: Growth inhibition percent (GI %)
Experimental: as §1, §2

T-47D = assay: NCI-60 one-dose SRB screen (Breast Cancer); format: cell-based; settings: Homo sapiens, T47D, single dose 10 µM, 48 h, read-out: Growth inhibition percent (GI %)
Experimental: as §1, §2

HS 578T = assay: NCI-60 one-dose SRB screen (Breast Cancer); format: cell-based; settings: Homo sapiens, single dose 10 µM, 48 h, read-out: Growth inhibition percent (GI %)
Experimental: as §1, §2

MDA-MB-468 = assay: NCI-60 one-dose SRB screen (Breast Cancer); format: cell-based; settings: Homo sapiens, single dose 10 µM, 48 h, read-out: Growth inhibition percent (GI %)
Experimental: as §1, §2

MDA-MB-231/ATCC = assay: NCI-60 one-dose SRB screen (Breast Cancer); format: cell-based; settings: Homo sapiens, single dose 10 µM, 48 h, read-out: Growth inhibition percent (GI %)
Experimental: as §1, §2

M14 = assay: NCI-60 one-dose SRB screen (Melanoma); format: cell-based; settings: Homo sapiens, single dose 10 µM, 48 h, read-out: Growth inhibition percent (GI %)
Experimental: as §1, §2

LOX IMVI = assay: NCI-60 one-dose SRB screen (Melanoma); format: cell-based; settings: Homo sapiens, single dose 10 µM, 48 h, read-out: Growth inhibition percent (GI %)
Experimental: as §1, §2

UACC-62 = assay: NCI-60 one-dose SRB screen (Melanoma); format: cell-based; settings: Homo sapiens, single dose 10 µM, 48 h, read-out: Growth inhibition percent (GI %)
Experimental: as §1, §2

MALME-3M = assay: NCI-60 one-dose SRB screen (Melanoma); format: cell-based; settings: Homo sapiens, single dose 10 µM, 48 h, read-out: Growth inhibition percent (GI %)
Experimental: as §1, §2

SK-MEL-2 = assay: NCI-60 one-dose SRB screen (Melanoma); format: cell-based; settings: Homo sapiens, single dose 10 µM, 48 h, read-out: Growth inhibition percent (GI %)
Experimental: as §1, §2

SK-MEL-5 = assay: NCI-60 one-dose SRB screen (Melanoma); format: cell-based; settings: Homo sapiens, single dose 10 µM, 48 h, read-out: Growth inhibition percent (GI %)
Experimental: as §1, §2

UACC-257 = assay: NCI-60 one-dose SRB screen (Melanoma); format: cell-based; settings: Homo sapiens, single dose 10 µM, 48 h, read-out: Growth inhibition percent (GI %)
Experimental: as §1, §2

MDA-MB-435 = assay: NCI-60 one-dose SRB screen (Melanoma); format: cell-based; settings: Homo sapiens, single dose 10 µM, 48 h, read-out: Growth inhibition percent (GI %)
Experimental: as §1, §2

SK-MEL-28 = assay: NCI-60 one-dose SRB screen (Melanoma); format: cell-based; settings: Homo sapiens, single dose 10 µM, 48 h, read-out: Growth inhibition percent (GI %)
Experimental: as §1, §2

hCA XII = hCA XII (Homo sapiens, UniProt O43570); assay: CA inhibitory activity, spectrophotometric p-NPA assay; format: biochemical; settings: p-NPA substrate, pH 7.5, 25 °C, triplicate; read-out: IC50 (µM) ± SD hCA XII
SK-OV-3 = assay: NCI-60 one-dose SRB screen (Ovarian cancer); format: cell-based; settings: Homo sapiens, single dose 10 µM, 48 h, read-out: Growth inhibition percent (GI %)
Experimental: as §1, §2

OVCAR-4 = assay: NCI-60 one-dose SRB screen (Ovarian cancer); format: cell-based; settings: Homo sapiens, single dose 10 µM, 48 h, read-out: Growth inhibition percent (GI %)
Experimental: as §1, §2

OVCAR-5 = assay: NCI-60 one-dose SRB screen (Ovarian cancer); format: cell-based; settings: Homo sapiens, single dose 10 µM, 48 h, read-out: Growth inhibition percent (GI %)
Experimental: as §1, §2

OVCAR-8 = assay: NCI-60 one-dose SRB screen (Ovarian cancer); format: cell-based; settings: Homo sapiens, single dose 10 µM, 48 h, read-out: Growth inhibition percent (GI %)
Experimental: as §1, §2

IGROV1 = assay: NCI-60 one-dose SRB screen (Ovarian cancer); format: cell-based; settings: Homo sapiens, IGROV-1, single dose 10 µM, 48 h, read-out: Growth inhibition percent (GI %)
Experimental: as §1, §2

OVCAR-3 = assay: NCI-60 one-dose SRB screen (Ovarian cancer); format: cell-based; settings: Homo sapiens, single dose 10 µM, 48 h, read-out: Growth inhibition percent (GI %)
Experimental: as §1, §2

NCI/ADR-RES = assay: NCI-60 one-dose SRB screen (Ovarian cancer); format: cell-based; settings: Homo sapiens, single dose 10 µM, 48 h, read-out: Growth inhibition percent (GI %)
Experimental: as §1, §2

hCA XII, sequence (O43570 25-354): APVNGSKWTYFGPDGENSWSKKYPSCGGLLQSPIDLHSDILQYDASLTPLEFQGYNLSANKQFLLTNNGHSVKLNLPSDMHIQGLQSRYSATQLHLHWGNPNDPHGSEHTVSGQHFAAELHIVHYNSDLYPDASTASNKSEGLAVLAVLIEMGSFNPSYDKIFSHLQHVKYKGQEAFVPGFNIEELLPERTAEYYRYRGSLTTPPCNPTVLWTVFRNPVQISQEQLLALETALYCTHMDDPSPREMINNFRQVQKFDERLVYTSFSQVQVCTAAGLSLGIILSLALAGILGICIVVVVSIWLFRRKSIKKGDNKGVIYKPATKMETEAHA

**Q.** For `COc1ccc(-c2nn(-c3ccc(S(N)(=O)=O)cc3)cc2C(=O)NNC(N)=S)cc1` [Compound 9c, 2-[3-(4-Methoxyphenyl)-1-(4-sulfamoylphenyl)-1H-pyrazole-4-carbonyl] hydrazine-1-carbothioamide], which inhibition at 10 µM (COLO 205) is on record?
**A.** < 5%

**Q.** What about the inhibition at 10 µM (CAKI-1) of the same compound?
**A.** < 5%

**Q.** What about the inhibition at 10 µM (UO-31) of the same compound?
**A.** < 5%

**Q.** What about the inhibition at 10 µM (A498) of the same compound?
**A.** < 5%

**Q.** And the inhibition at 10 µM (ACHN)?
**A.** < 5%

**Q.** And the inhibition at 10 µM (RXF 393)?
**A.** < 5%

**Q.** And the inhibition at 10 µM (786-0)?
**A.** < 5%

**Q.** And the inhibition at 10 µM (TK-10)?
**A.** < 5%

**Q.** And the inhibition at 10 µM (MCF-7)?
**A.** < 5%

**Q.** And the inhibition at 10 µM (BT-549)?
**A.** < 5%

**Q.** What about the inhibition at 10 µM (T-47D) of the same compound?
**A.** < 5%

**Q.** What about the inhibition at 10 µM (HS 578T) of the same compound?
**A.** < 5%

**Q.** What about the inhibition at 10 µM (MDA-MB-468) of the same compound?
**A.** < 5%

**Q.** What about the inhibition at 10 µM (MDA-MB-231/ATCC) of the same compound?
**A.** < 5%

**Q.** And the inhibition at 10 µM (M14)?
**A.** < 5%

**Q.** What about the inhibition at 10 µM (LOX IMVI) of the same compound?
**A.** < 5%

**Q.** And the inhibition at 10 µM (UACC-62)?
**A.** 8.41%

**Q.** And the inhibition at 10 µM (MALME-3M)?
**A.** < 5%

**Q.** And the inhibition at 10 µM (SK-MEL-2)?
**A.** < 5%

**Q.** What about the inhibition at 10 µM (SK-MEL-5) of the same compound?
**A.** < 5%

**Q.** What about the inhibition at 10 µM (UACC-257) of the same compound?
**A.** < 5%

**Q.** What about the inhibition at 10 µM (MDA-MB-435) of the same compound?
**A.** < 5%

**Q.** And the inhibition at 10 µM (SK-MEL-28)?
**A.** < 5%

**Q.** What about the IC50 (hCA XII) of the same compound?
**A.** 0.168 ± 0.006 µM

**Q.** What about the inhibition at 10 µM (SK-OV-3) of the same compound?
**A.** < 5%

**Q.** And the inhibition at 10 µM (OVCAR-4)?
**A.** < 5%

**Q.** What about the inhibition at 10 µM (OVCAR-5) of the same compound?
**A.** < 5%

**Q.** And the inhibition at 10 µM (OVCAR-8)?
**A.** < 5%

**Q.** And the inhibition at 10 µM (IGROV1)?
**A.** < 5%

**Q.** And the inhibition at 10 µM (OVCAR-3)?
**A.** < 5%

**Q.** And the inhibition at 10 µM (NCI/ADR-RES)?
**A.** < 5%
